According to patent US20110312984A1, “STAT3 INHIBITORS” (priority 2008, published 2011):
pIC50: −log10 of the molar value. Entries after “also recorded” stand apart in the source; their conditions may differ. Like-named read-outs stand apart in the source and are kept apart here.

Key:
human leukemic cell line = experiment: Leukemic cell line (AML) apoptosis assay; type: cell-based
GFP-Stat3α = biological target: T1, GFP-Stat3α (Homo sapiens, UniProt P40763); experiment: High-throughput fluorescence microscopy (HTFM), cytoplasm-to-nucleus translocation inhibition in MEF/GFP-Stat3α cells; type: cell-based, murine
T1 construct: expressed in transfected cells; host or cells: murine embryonic fibroblasts (MEF) deficient in endogenous Stat3
Procedure: Confocal and highthroughput fluorescence microscopy (HTFM) of MEF/GFP-Stat3α cells were performed as described (Huang et al., 2007). […] For HTFM, cells were seeded into 96-well CC3 plates at a density of 5,000 cells/well using an automated plating system. Cells were cultured under standard conditions until 85-90% confluent. Cells were pretreated with compound for 1 hour at 37° C. then stimulated with IL-6 (200 ng/ml) and IL-6sR (250 ng/ml) for 30 minutes. Cells fixed with 4% formaldehyde in PEM Buffer (80 mM Potassium PIPES, pH 6.8, 5 mM EGTA pH 7.0, 2 mM MgCl2) for 30 minutes at 4° C., quenched in 1 mg/ml of NaBH4 (Sigma) in PEM buffer and counterstained for 1 min in 4,6-diamidino-2-phenylindole (DAPI; Sigma; 1 mg/ml) in PEM buffer. […] Plates were analyzed by automated HTFM using the Cell Lab IC Image Cytometer (IC100) platform and CytoshopVersion 2.1 analysis software (Beckman Coulter). Nuclear translocation is quantified by using the fraction localized in the nucleus (FLIN) measurement (Sharp et al., 2006).
High throughput fluorescence microscopy (HTFM), cytoplasm-to-nucleus translocation inhibition assays. […] Briefly, cells are seeded into 96-well CC3 plates at a density of 5,000 cells/well and cultured under standard conditions until 85-90% confluent. Cells are pre-treated with compound for 1 hour at 37° C. then stimulated with IL-6 (100 ng/ml) and IL-6sR (150 ng/ml) for 30 minutes. Cells are fixed with 4% formaldehyde in PEM Buffer (80 mM Potassium PIPES, pH 6.8, 5 mM EGTA pH 7.0, 2 mM MgCl2) for 30 minutes at 4° C., quenched in 1 mg/ml of NaBH4 (Sigma) in PEM buffer and counterstained for 1 min in 4,6-diamidino-2-phenylindole (DAPI; Sigma; 1 mg/ml) in PEM buffer. Plates are analyzed by automated HTFM using the Cell Lab IC Image Cytometer (IC100) platform and CytoshopVersion 2.1 analysis software (Beckman Coulter).
Nuclear translocation is quantified by using the fraction localized in the nucleus (FLIN) measurement. […] The best-fitting curve and IC50 value are determined using 4-Parameter LogisticModel/Dose Response/XLfit 4.2, IDBS software.

Stat1 = biological target: T2, Stat1 (Homo sapiens, UniProt P42224); experiment: Immunoblot assay: IFN-γ-mediated phosphorylation of Stat1 in HepG2 cells; type: cell-based; details: 300 μM, 1 hour at 37° C. before IFN-γ stimulation
T2 construct: endogenous in cells; host or cells: HepG2
T2 sequence (P42224 1-750): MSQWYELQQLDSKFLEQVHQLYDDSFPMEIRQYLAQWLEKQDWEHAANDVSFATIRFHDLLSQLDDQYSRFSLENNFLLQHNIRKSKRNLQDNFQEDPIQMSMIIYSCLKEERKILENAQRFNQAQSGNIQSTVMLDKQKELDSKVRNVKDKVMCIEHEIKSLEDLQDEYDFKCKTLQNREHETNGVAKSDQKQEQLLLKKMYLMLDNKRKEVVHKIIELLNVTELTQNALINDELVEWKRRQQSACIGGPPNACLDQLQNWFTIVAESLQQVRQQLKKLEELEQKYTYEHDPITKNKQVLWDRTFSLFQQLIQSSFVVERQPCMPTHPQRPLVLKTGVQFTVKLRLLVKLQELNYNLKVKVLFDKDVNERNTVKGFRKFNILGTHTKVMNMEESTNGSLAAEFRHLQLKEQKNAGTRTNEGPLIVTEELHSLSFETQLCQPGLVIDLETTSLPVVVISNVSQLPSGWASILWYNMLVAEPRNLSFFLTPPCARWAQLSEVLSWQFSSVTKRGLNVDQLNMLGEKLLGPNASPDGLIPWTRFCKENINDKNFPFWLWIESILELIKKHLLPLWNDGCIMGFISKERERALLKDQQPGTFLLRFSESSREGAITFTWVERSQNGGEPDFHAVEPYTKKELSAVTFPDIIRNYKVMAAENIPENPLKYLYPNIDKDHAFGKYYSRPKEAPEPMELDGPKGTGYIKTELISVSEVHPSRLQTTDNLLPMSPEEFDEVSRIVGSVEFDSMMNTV
Procedure: Immunoblot assay. The human hepatocellular carcinoma cell line (HepG2) was grown in 6-well plates under standard conditions. Cells were pretreated with compounds (0, 1, 3, 10, 30, 100 and 300 uM) for 1 hour then stimulated under optimal conditions with either interferon gamma (IFN-γ; 30 ng/ml for 30 min) to activate Stat1 or interleukin-6 (IL-6; 30 ng/ml for 30 min) to activate Stat3 (30-31). Cultures were then harvested and proteins extracted using high-salt buffer, as described (Shao et al., 2006). Briefly, extracts were mixed with 2× sodium dodecyl sulfate (SDS) sample buffer (125 mmol/L Tris-HCL pH 6.8; 4% SDS; 20% glycerol; 10% 2-mercaptoethanol) at a 1:1 ratio and heated for 5 minutes at 100° C. Proteins (20 μg) were separated by 7.5% SDS-PAGE and transferred to polyvinylidene fluoride (PVDF) membrane (Millipore, Waltham, Mass.) and immunoblotted. Prestained molecular weight markers (Biorad, Hercules, Calif.) were included in each gel. Membranes were probed serially with antibody against Stat1 pY^701 or Stat3 pY^705 followed by antibody against Stat1 or Stat3 (Transduction labs, Lexington, Ky.) then antibody against β-actin (Abcam, Cambridge, Mass.). Membranes were stripped between antibody probing using Restore™ Western Blot Stripping Buffer (Thermo Fisher Scientific Inc., Waltham, Mass.) per the manufacturer's instructions. Horseradish peroxidase-conjugated goat-anti-mouse IgG was used as the secondary antibody (Invitrogen Carlsbad, Calif.) and the membranes were developed with enhanced chemiluminescence (ECL) detection system (Amersham Life Sciences Inc.; Arlington Heights, Ill.).
EXP IIC. Ligand-mediated pStat3 and pStat1 inhibition assays. […] Briefly, human hepatocellular carcinoma cells (HepG2) are grown in 6-well plates and pretreated with compounds (0, 0.1, 0.3, 1, 3, 10, 30, 100 μM) for 1 hour then stimulated under optimal conditions with either interleukin-6 (IL-6; 30 ng/ml for 30 min) to activate Stat3 or interferon gamma (IFN-γ; 30 ng/ml for 30 min) to activate Stat1. Cells are harvested and proteins extracted using high-salt buffer, mixed with 2× sodium dodecyl sulfate (SDS) sample buffer (125 mmol/L Tris-HCL pH 6.8; 4% SDS; 20% glycerol; 10% 2-mercaptoethanol) at a 1:1 ratio then heated for 5 minutes at 100° C. Proteins (20 μg) are separated by 7.5% SDS-PAGE and transferred to polyvinylidene fluoride (PVDF) membrane (Millipore, Waltham, Mass.) and immunoblotted. Membranes are probed serially with antibody against Stat1 pY701 or Stat3 pY705 followed by antibody against Stat 1 or Stat3 (Transduction labs, Lexington, Ky.) then antibody against β-actin (Abcam, Cambridge, Mass.). Membranes are stripped between antibody probings using Restore™ Western Blot Stripping Buffer (Thermo Fisher Scientific Inc., Waltham, Mass.) per the manufacturer's instructions. Horseradish peroxidase-conjugated goat-anti-mouse IgG is used as the secondary antibody (Invitrogen Carlsbad, Calif.) and the membranes are developed with enhanced chemiluminescence (ECL) detection system (Amersham Life Sciences Inc.; Arlington Heights, Ill.). Band intensities are quantified by densitometry. The value of each pStat3 band is divided by its corresponding total Stat3 band intensity; the results are normalized to the DMSO-treated control value. This value was plotted as a function of the log compound concentration. The best-fitting curve is determined using 4-Parameter Logistic Model/Dose Response/XLfit 4.2, IDBS software and was used to calculate the IC50 value.

Stat3 = biological target: T3, Stat3 (Homo sapiens, UniProt P40763); experiment: Immunoblot assay: IL-6-mediated phosphorylation of Stat3 in HepG2 cells; type: cell-based
T3 construct: endogenous in cells; host or cells: HepG2
Procedure: Immunoblot assay. The human hepatocellular carcinoma cell line (HepG2) was grown in 6-well plates under standard conditions. […] Prestained molecular weight markers (Biorad, Hercules, Calif.) were included in each gel. […] Membranes were stripped between antibody probing using Restore™ Western Blot Stripping Buffer (Thermo Fisher Scientific Inc., Waltham, Mass.) per the manufacturer's instructions. Horseradish peroxidase-conjugated goat-anti-mouse IgG was used as the secondary antibody (Invitrogen Carlsbad, Calif.) and the membranes were developed with enhanced chemiluminescence (ECL) detection system (Amersham Life Sciences Inc.; Arlington Heights, Ill.).
Ligand-mediated pStat3 and pStat1 inhibition assays. […] Membranes are probed serially with antibody against Stat1 pY701 or Stat3 pY705 followed by antibody against Stat 1 or Stat3 (Transduction labs, Lexington, Ky.) then antibody against β-actin (Abcam, Cambridge, Mass.). Membranes are stripped between antibody probings using Restore™ Western Blot Stripping Buffer (Thermo Fisher Scientific Inc., Waltham, Mass.) per the manufacturer's instructions. Horseradish peroxidase-conjugated goat-anti-mouse IgG is used as the secondary antibody (Invitrogen Carlsbad, Calif.) and the membranes are developed with enhanced chemiluminescence (ECL) detection system (Amersham Life Sciences Inc.; Arlington Heights, Ill.). Band intensities are quantified by densitometry. The value of each pStat3 band is divided by its corresponding total Stat3 band intensity; the results are normalized to the DMSO-treated control value. This value was plotted as a function of the log compound concentration. The best-fitting curve is determined using 4-Parameter Logistic Model/Dose Response/XLfit 4.2, IDBS software and was used to calculate the IC50 value.

[1] = test system: breast cancer cells with constitutively activated Stat3; details: cited from earlier work
Stat3:hSIE complexes = biological target: T4, Stat3:hSIE complexes (Homo sapiens, UniProt P40763); experiment: Electrophoretic mobility shift assay (EMSA) with hSIE probe, extracts of IL-6-stimulated HepG2 cells; type: biochemical; details: 300 μM, 60 minutes at 37° C.
T4 construct: endogenous in cells; host or cells: HepG2
Procedure: Electrophoretic Mobility Shift Assay (EMSA): EMSA was performed using the hSIE radiolabeled duplex oligonucleotide as a probe as described (Tweardy et al., 1995). Briefly, high salt extracts were prepared from HepG2 cells incubated without or with IL-6 (30 ng/ml) for 30 minutes. Protein concentration was determined by Bradford Assay and 20 ug of extract was incubated with compound (300 uM) for 60 minutes at 37° C. […] Gels were dried and autoradiographed.

MDA-MB-231 = details: 5 mg/kg every 2-3 days; cited from earlier work
[2] = MEF/GFP-Stat3α, IL-6 200 ng/ml and IL-6sR 250 ng/ml 30 min, read-out: HTM IC50 (ligand-mediated nuclear translocation of GFP-Stat3α)
[3] = HepG2, compound 1 hour, IL-6 30 ng/ml 30 min, read-out: pStat3 IC50 (IL-6-mediated phosphorylation of Stat3)

T3 sequence (P40763 2-770 limits assumed): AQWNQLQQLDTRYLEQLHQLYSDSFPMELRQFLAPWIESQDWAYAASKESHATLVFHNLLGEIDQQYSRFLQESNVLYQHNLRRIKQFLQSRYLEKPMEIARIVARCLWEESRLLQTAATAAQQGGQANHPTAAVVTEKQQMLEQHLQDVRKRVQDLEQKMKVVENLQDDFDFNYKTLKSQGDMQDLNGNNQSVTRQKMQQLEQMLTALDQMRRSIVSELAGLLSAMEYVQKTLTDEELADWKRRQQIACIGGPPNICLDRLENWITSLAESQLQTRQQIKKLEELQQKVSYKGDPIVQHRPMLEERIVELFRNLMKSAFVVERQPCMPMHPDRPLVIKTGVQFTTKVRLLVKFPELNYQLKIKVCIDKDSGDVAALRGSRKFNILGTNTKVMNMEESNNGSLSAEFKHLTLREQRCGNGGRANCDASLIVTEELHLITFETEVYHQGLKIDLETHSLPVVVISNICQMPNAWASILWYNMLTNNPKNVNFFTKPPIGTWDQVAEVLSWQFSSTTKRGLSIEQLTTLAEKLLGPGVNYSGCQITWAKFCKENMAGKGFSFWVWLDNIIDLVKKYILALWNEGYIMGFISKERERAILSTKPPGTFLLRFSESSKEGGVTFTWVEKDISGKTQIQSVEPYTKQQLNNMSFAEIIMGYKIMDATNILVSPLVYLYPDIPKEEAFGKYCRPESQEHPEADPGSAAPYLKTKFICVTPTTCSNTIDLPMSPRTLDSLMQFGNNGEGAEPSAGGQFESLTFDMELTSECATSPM
T1 sequence (P40763 whole entry): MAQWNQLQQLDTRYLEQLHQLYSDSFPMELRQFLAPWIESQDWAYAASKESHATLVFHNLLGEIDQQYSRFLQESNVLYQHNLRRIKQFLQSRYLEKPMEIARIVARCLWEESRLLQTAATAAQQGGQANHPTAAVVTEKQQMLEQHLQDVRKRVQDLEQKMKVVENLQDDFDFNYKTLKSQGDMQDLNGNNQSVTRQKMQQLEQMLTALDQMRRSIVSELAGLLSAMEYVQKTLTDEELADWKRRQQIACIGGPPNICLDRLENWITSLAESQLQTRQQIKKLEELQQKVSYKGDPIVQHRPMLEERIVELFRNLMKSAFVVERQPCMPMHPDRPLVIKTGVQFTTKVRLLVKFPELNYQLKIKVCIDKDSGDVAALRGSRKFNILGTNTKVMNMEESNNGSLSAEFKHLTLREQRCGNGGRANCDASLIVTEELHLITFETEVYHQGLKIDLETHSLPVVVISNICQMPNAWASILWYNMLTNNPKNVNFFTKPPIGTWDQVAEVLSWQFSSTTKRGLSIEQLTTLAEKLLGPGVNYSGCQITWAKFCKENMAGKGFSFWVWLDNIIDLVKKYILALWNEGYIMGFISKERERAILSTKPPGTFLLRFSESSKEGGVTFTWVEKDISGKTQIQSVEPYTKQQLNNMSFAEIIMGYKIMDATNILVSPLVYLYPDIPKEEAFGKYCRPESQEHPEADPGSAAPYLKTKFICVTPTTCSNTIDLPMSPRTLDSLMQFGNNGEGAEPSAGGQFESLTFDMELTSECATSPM
T4 sequence (P40763 2-770 limits assumed, one chain of several): as the sequence (P40763 2-770 limits assumed) above

In the case of `COc1ccc(S(=O)(=O)Nc2cc(-c3c(O)ccc4ccccc34)c(O)c3ccccc23)cc1` [Cpd188-9], the “leukemic cell line apoptosis activity compared with parent Cpd188” value (human leukemic cell line) was “one log better; also recorded: a log greater activity”.

With `CCN1C(=O)C(=Cc2ccc(-c3cc(C(=O)O)ccc3Cl)o2)C(=O)N(CC)C1=S` [Cpd30-12, 4-chloro-3-{5-[(1,3-diethyl-4,6-dioxo-2-thioxotetrahydro-5(2H)-pyrimidinylidene)methyl]-2-furyl}benzoic acid] the pIC50 (GFP-Stat3α) was less than 3.52, the Stat1 phosphorylation blocked (Stat1) was “blocked” and the pIC50 (Stat3) was 4.22.

With `CCN1C(=O)C(=Cc2ccc(-c3ccc(C(=O)O)cc3)o2)SC1=S` [Cpd30, 4-{5-[(3-ethyl-4-oxo-2-thioxo-1,3-thiazolidin-5-ylidene)methyl]-2-furyl}benzoic acid] the Stat1 phosphorylation blocked (Stat1) was “did not”.

For `O=[N+]([O-])c1ccc2c(c1)S(=O)(=O)C=C2` [Stattic], the “active concentration range (binding, phosphorylation, translocation, DNA binding, apoptosis)” value [1] is listed as 5 to 20 µM.

With `O=C(O)c1ccc(C=CC(=O)c2ccc3c(c2)OCCO3)cc1` [Cpd3, 4-[3-(2,3-dihydro-1,4-benzodioxin-6-yl)-3-oxo-1-propen-1-yl]benzoic acid] the pIC50 (GFP-Stat3α; [2]) was 3.88, the “amount of hSIE shifted (Stat3:hSIE band intensity)” value (Stat3:hSIE complexes) was “reduced the amount of hSIE shifted by half or greater” and the Stat1 phosphorylation blocked (Stat1) was “did not”. It also gave a pIC50 (Stat3; [3]) of 4.04.

For `CCOc1cc(C=C2C(=O)c3ccccc3C2=O)cc(Cl)c1OCc1cccc(C(=O)O)c1` [Cpd3-2, 3-({2-chloro-4-[(1,3-dioxo-1,3-dihydro-2H-inden-2-ylidene)methyl]-6-ethoxyphenoxy}methyl)benzoic acid], the pIC50 (GFP-Stat3α; [2]) was 3.82, the Stat1 phosphorylation blocked (Stat1) was “did not” and the pIC50 (Stat3; [3]) was 3.84.

For `COC(=O)Cc1c(C)c2ccc(OCc3ccc(C(=O)OC)cc3)c(C)c2oc1=O` [Cpd3-7, methyl 4-({[3-(2-methyoxy-2-oxoethyl)-4,8-dimethyl-2-oxo-2H-chromen-7-yl]oxy}methyl)benzoate], the Stat1 phosphorylation blocked (Stat1) was “did not”.

In the case of `Cc1ccc(S(=O)(=O)OCC(=O)Nc2ccc(C(=O)O)c(O)c2)cc1` [S3I-201], the “growth of nude mice xenografts” value (MDA-MB-231) is given as “inhibited growth”.
